Data reported in patent US20180256560A1 (priority 2015, published 2018).
Several values for one entry are separate records, joined by “and”; a condition that tells them apart may be missing. Identical values can stand only once. Like-named read-outs stand apart in the source and are kept apart here.

How the values were obtained:
[1] = cited from earlier work
[2] = not given; remark: listed apart in the source
[3] = not given; remark: listed apart in the source
[4] = 20 mg/ml nicotine in the formulation; FIGS. 4.4-4.6
Description: Test solutions were prepared from ethanol, de-ionized water, a 20% stock solution of glycerol in de-ionized water, a 5 M NaCl solution and nicotine solutions of 40 mg/ml in either ethanol or de-ionized water. Solutions were analysed for droplet size distributions generated by an eFlow© rapid nebulizer device (PARI GmbH) which was placed at 90° to, and 15 cm from, the laser light path of a Malvern Spraytec particle sizer. A Malvern Spraytec Real Time Droplet Sizer and an Alberta Idealized Throat coupled to an Andersen Cascade Impactor (AIT/ACI) were also used to determine droplet size.
The surface to volume ratio of the droplets was calculated using the following formulae:

## CN1CCC[C@H]1c1cccnc1 [nicotine, (S)-3-(1-Methyl-2-pyrrolidinyl)pyridine]
[1]; 25% of the average 1 mg of nicotine delivered by a cigarette
  nicotine in 5 litres of arterial blood: 30 to 60 ng/mL
[1]; smokers, typical
  time to peak nicotine concentration in arterial blood: 3 to 5 min
20 mg/ml nicotine, 1% ethanol, FIG. 2.3
  reduction of nicotine in gas form at equilibrium by ethanol: 90%
Decreasing pH from 10 to 3, FIG. 2.2
  effect of pH on amount of nicotine in gas form at equilibrium: dramatically decreases
Higher salt concentrations
  effect of metal salt on amount of gaseous nicotine at equilibrium: larger amounts of gaseous nicotine
[2]; 1M NaCl
  enhancement of gaseous release of nicotine from the solution by salt: two-fold
[2]; 10% ethanol, FIG. 3.4
  reduction of nicotine gas release by ethanol (dynamic): 90%
[2]; decreasing pH from 8 to 3, FIG. 3.2
  effect of pH on nicotine gas release (dynamic): dramatically decreases
[2]; increasing NaCl from 0 to 1M, FIG. 3.3
  effect of NaCl on nicotine release in gas form (dynamic): dramatically increases
[3]; pH 7
  nicotine molecules uncharged: approximately 10%
[3]; pH 10
  nicotine molecules uncharged: > 99% and ~100%
[4]
  effect of adding nicotine on droplet size: no major shift in droplet size
